Literature values in patent US10874605B2, “Extended release biodegradable ocular implants” (Allergan, Inc., priority 2004, dated 2020).

Conditions: efficacy in vivo

SMILES: C[C@]12CCC(=O)C=C1CC[C@@H]1[C@@H]2[C@@H](O)C[C@@]2(C)[C@H]1CC[C@]2(O)C(=O)CO [hydrocortisone]
- dose equivalent to a 1 mg dose of dexamethasone: 25 mg
- potency relative to dexamethasone: approximately twenty five fold less potent than dexamethasone
